How the values were obtained:
[1] = cited from earlier work
U937 cells [2] = assay: Flow cytometric cell cycle analysis (propidium iodide); type: cell-based, human; settings: U937
Description: Flow cytometric analyses were performed with a Coulter Epics System (purchased from Coulter Corp, Hialeah, Fla.). Cells were disrupted in buffer with 0.1% Triton-X 100 (or 0.6 % NP-40), so that the nuclei could be stained with 0.05% propidium iodide (PI). See Shapiro N M, Practical Flow Cytometry, Man R Liss, NY (1988); Nicoletti I et al., J Immunol Methods 139:271-9 (1991). Analyses of 10,000 nuclei were performed with graduated concentrations of dThd at serial time points. Histograms of PI fluorescent emissions at 675±10 nm were used to discriminate cell cycle fractions of the target population. The proportion of cells in each phase of the cell cycle is represented by stack bars above the X-axis as a fraction of those cells with intact DNA structure. The fraction of cells with depleted DNA in each sample is represented below the X-axis as a percentage of the total cell number. Cells with depleted DNA are presumed apoptotic. Crompton S T et. al. Biophys. Biochem. Res. Comm. 183:532-537 (1992). Each stack bar in FIG. 5 represents the cell cycle distribution of a population sample of >10,000 cells, analyzed for each indicated dThd concentration at indicated treatment times.
Flow cytometric analyses were performed as in Example 2. The results are shown in plot A of FIG. 5 from Example 2.
The U937 cells were exposed to a range of concentrations below the IC40 and sampled for flow cytometry at intervals of 8, 16, and 24 hours. Flow cytometric analysis was performed as described in Example 2.

U937 cells [3] = assay: DNA gel electrophoresis for DNA fragmentation (apoptosis); type: cell-based, human
Description: Samples of the U937 cells were exposed to a series of concentrations of dThd for 24 hr. Their DNA was isolated by lysis of cell samples in TE buffer containing TRIS 10 mM, EDTA 10 mM, SDS 0.5% and proteinase K 200 μg/ml at […] for 2 h. The proteins were precipitated in a IM solution of NaCl and centrifuged at 2,500×g for 30 min at […] DNAse free RNase (25 μg/ml) was added to the supernatant and incubated for 30 min at 37° C. Spectrophotometric quantitation of the DNA in the supernatant was quantitated by absorbance spectrophotometry at 260 nm. Volumes adjusted to contain equal amounts of DNA were mixed with a loading buffer of 40% (w/v) sucrose, 0.1M EDTA pH 8.0, 0.5% (w/v) sodium lauryl sulphate and 0.05% (w/v) bromophenol blue. […] Separated bands of DNA were stained with ethidium bromide and photographed in UV light (Fotodyne Inc.). […] The lowest molecular weight (about 180 bp) was determined with a standard 123 bp ladder from Sigma Chemical Co. (Cat. #D5042). The result shown is a classical “DNA ladder,” characteristic of the fragmentation of DNA macromolecules in apoptosis. See Tomei, supra; Obeid, supra; Gold, supra.

For `C[C@@]1(CO)[C@H](O)CC[C@@]2(C)[C@H]1CC[C@H]1C[C@@H]3C[C@@]12CC[C@]3(O)CO` [Aph, aphidicolin], the Peak plasma levels ([1]; continuous infusion, minimal toxicity) is given as 3 µg/mL.
With `CN[C@@H]1C[C@H]2O[C@@](C)([C@@H]1OC)n1c3ccccc3c3c4c(c5c6ccccc6n2c5c31)C(=O)NC4` [STSP, staurosporine] the “Effect on cell cycle distribution” value (U937 cells [2]; 50 nM STSP, from 4 hours, shown at 8 hr and 24 hours) was “gradually accumulated in the G2 and M phases” and the “DNA ladder pattern fragmentation” value (U937 cells [3]; 50 nM STSP, 8 hours, U937) was “DNA fragmentation in U937 cells in 8 hours”.
In the case of `Cc1cn([C@H]2C[C@H](O)[C@@H](CO)O2)c(=O)[nH]c1=O` [dThd, deoxythymidine], the “Effect on cell cycle progression” value (U937 cells [2]; 0.2 mM dThd) is reported as “permitted continuous cell transit”, the “Effect on cell cycle progression” value (U937 cells [2]; 3 mM dThd) is reported as “arrested cell cycle progression at G1/S” and the DNA fragmentation (U937 cells [3]; 3 mM dThd, cell cycle arrest) is reported as “pronounced DNA fragmentation”. The “dThd concentration giving fragmentation of DNA” value (U937 cells [3]; U937, 24 hr, FIG. 8) was > 0.5 mM and the “Blood (plasma) levels achieved” value ([1]; human subjects, oral doses) was “up to 6 mM”.

From patent publication US6455593B1, “Method of dynamic retardation of cell cycle kinetics to potentiate cell damage” (priority 1995, dated 2002)
